Data: paper PMC10313921, “A living ex vivo platform for functional, personalized brain cancer diagnosis” (Cell Reports Medicine, 2023)
pEC50, pIC50: −log10 of the molar value.

Assays:
Format in all cases: cell-based, human
[1] = system: MB231Br (breast cancer metastasis to brain); assay: Drug screening of MB231Br tumor foci on OBSCs
[2] = system: LN229 (established GBM line); assay: Drug screening of LN229 tumor foci on OBSCs
Summary of the method: (§1)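 Bioluminescence viability readout, 3 d post-treatment, normalized to day-1 tumor fluorescence vs untreated; 6 drug concentrations or XRad, n = 4 foci per concentration. Drug sensitivity score sums weighted parameters comparing tumor kill with OBSC toxicity, ranging −100 to 100.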

[3] = system: U373WT (wild-type established GBM line); assay: Drug screening of U373WT tumor foci on OBSCs; conditions: U373 WT on OBSCs
Summary of the method: as §1

[4] = system: U373KO (RAD18 knockout of U373WT via CRISPR); assay: Drug screening of U373KO tumor foci on OBSCs; conditions: U373 KO on OBSCs
Summary of the method: as §1

[5] = system: GBM8 (high-passage patient-derived GBM line); assay: Drug screening of GBM8 tumor foci on OBSCs
Summary of the method: as §1

[6] = system: MS21 (low-passage patient-derived GBM line); assay: Drug screening of MS21 tumor foci on OBSCs
Summary of the method: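 Luciferase-expressing tumor cells seeded onto organotypic brain slice cultures; one day later treated with six drug concentrations in the medium, or X-irradiation. Bioluminescence read three days after treatment, normalised to day-one fluorescence and untreated controls. Dose-response values by linear interpolation; DSS combines weighted tumor-kill versus slice-toxicity parameters (−100 to 100).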

[7] = system: PDIPG (low-passage pediatric patient-derived line); assay: Drug screening of PDIPG tumor foci on OBSCs
Summary of the method: as §1

[8] = system: PIS patient tumor tissue (intracranial sarcoma); assay: Drug screening of uncultured patient tumor tissue PIS on OBSCs; conditions: Homo sapiens; PIS on OBSCs; dose required to kill 90% of the tumor
Protocol: (§2) Tumor cells were seeded onto OBSCs 2h after slicing as described above. One day after tumor seeding, six concentrations of each drug were diluted in the media underneath each culture insert, or XRad was applied using an X-Rad 320 Precision X-ray machine (n = 4 tumor foci per concentration; n ≥ 24 tumor foci per drug per cell line). Three days after treatment, the bioluminescence of live tumor cells was measured using an AMI optical imager (Spectral Instruments) and dose-response curves were generated. Tumor survival was normalized to day one tumor fluorescence and compared to an untreated control group.
(§3) To engraft onto OBSCs, the cryopreserved/thawed or fresh brain tumor tissue was filtered through a 100 μm cell strainer. Each 50 mg of tissue was transfected with 1mL mcherry-FLuc Lentivirus at 1.5e7 vg/ml with 1μL polybrene for 4h at 37°C. After incubation, the brain tumor tissue was washed with PBS three times to remove the residual virus and reconstituted in PBS with a final volume of 150 μL. Then the tissue solution was engrafted atop OBSCs at ∼0.5 mg tissue in 3 μL of PBS on each hemisphere of the slice. The OBSC engrafted with patient tumor tissue was incubated at 37°C with 5% CO2 and 95% humidity. The BSM was changed after 24h and subsequently every 3 days. Tumor treatment studies were executed as described above for tumor lines. The viability of the patient tissue was measured by an AMI optical imaging system with the addition of 1.5 mg/mL luciferin underneath the culture insert.
(§4) Several weighted parameters were factored into an overall drug sensitivity score.
(§5) For DSS parameters 1–6, therapeutic windows were calculated by comparing OBSC toxicity and tumor response at the doses where tumor kill passed through the DSS parameter (Table S1 and S3). For DSS parameter 7, the therapeutic window was calculated by comparing the slopes through the tumor EC50 and the OBSC tox EC50. For DSS parameter 8, the therapeutic window was calculated by comparing the areas under tumor kill and OBSC tox curves. Normalized therapeutic window ratios for DSS parameters 1–8 within each drug-tumor-OBSC interaction were calculated in the following manner: within each window, values ranged from +1 to −1, where values approaching +1 signify increasing tumor kill relative to normal tissue toxicity, and values approaching −1 indicate agents where tumors remained highly viable while toxicity to the normal OBSC tissue was elevated. DSS parameters 9–11 were determined based on the behavior of the tumor in response to the drug, as defined above.
(§6) All individually weighed parameters were added together to generate the DSS. Overall DSS from 0 to 100 signify increasing efficacy in tumor kill relative to OBSC toxicity, while scores from 0 to −100 describe scenarios in which tumors thrive more effectively than OBSCs for a given treatment. Dose-response values were calculated via linear interpolation of raw data, not from best-fit curve equations.

[9] = system: PGBM-R patient tumor tissue (recurrent tumor from same patient as PGBM); assay: Drug screening of uncultured patient tumor tissue PGBM-R on OBSCs; conditions: PGBM-R relative to PGBM
Protocol: as §2, §3, §4, §5, §6

[10] = area under the dose-response curve, trapezoidal rule
[11] = dose required to kill 10% of the tumor
[12] = dose required to kill 25% of the tumor
[13] = dose required to kill 75% of the tumor
[14] = Homo sapiens, U373 MG, dose required to kill 50% of the tumor
[15] = Homo sapiens, U373 MG, dose required to kill 90% of the tumor
[16] = Homo sapiens, U373 MG, dosed day 1, survival via bioluminescence day 4, linear interpolation

`Nc1ncn([C@@H]2O[C@H](CO)[C@@H](O)[C@H]2O)c(=O)n1` [Azacitidine] gave a pEC50 ([1]; Homo sapiens, MB231BR on OBSCs, dose required to kill 50% of the tumor) of 3.68, an EC90 ([1]; Homo sapiens, MB231BR on OBSCs, dose required to kill 90% of the tumor) of 906 µM and a pIC50 ([1]; Homo sapiens, MB231Br on OBSCs, dosed day 1, survival via bioluminescence day 4, linear interpolation) of 3.68. The “Killing at highest dose” value ([1]; MB231BR on OBSCs) was 9.50E-01 fraction of tumor population killed, the AUC ([1]; MB231BR on OBSCs, area under the dose-response curve, trapezoidal rule) was 3.36E+02 and the EC10 ([1]; MB231BR on OBSCs, dose required to kill 10% of the tumor) was 4.76 µM. The EC25 ([1]; MB231BR on OBSCs, dose required to kill 25% of the tumor) was 18.9 µM, the EC75 ([1]; MB231BR on OBSCs, dose required to kill 75% of the tumor) was 625 µM and the Slope ([1]; MB231BR on OBSCs, slope through the EC50) was -1.20E-03. For the same compound, the “Killing at highest dose” value [2] was 8.60E-01 fraction of tumor population killed, the pEC50 ([2]; Homo sapiens, LN-229, dose required to kill 50% of the tumor) was 3.40 and the EC90 ([2]; Homo sapiens, LN-229, dose required to kill 90% of the tumor) was over 10 µM. It also gave a pIC50 ([2]; Homo sapiens, LN-229, dosed day 1, survival via bioluminescence day 4, linear interpolation) of 3.40, an AUC [2, 10] of 4.51E+02 and an EC10 [2, 11] of 28.9 µM. The EC25 [2, 12] was 45.6 µM, the EC75 [2, 13] was 817 µM and the Slope ([2]; slope through the EC50) was -6.00E-04. For the same compound, the pEC50 [3, 14] was 3.10, the EC90 [3, 15] was over 10 µM and the pIC50 [3, 16] was 3.10. The “Killing at highest dose” value [3] was 5.40E-01 fraction of tumor population killed, the AUC [3, 10] was 5.88E+02 and the EC10 [3, 11] was 61.1 µM. It also gave an EC25 [3, 12] of 81.9 µM, a Slope ([3]; slope through the EC50) of -2.00E-04 and a pEC50 [4, 14] of 3.80. The EC90 [4, 15] was over 10 µM, the pIC50 [4, 16] was 3.80 and the “Killing at highest dose” value [4] was 8.30E-01 fraction of tumor population killed. It also gave an AUC [4, 10] of 3.39E+02, an EC10 [4, 11] of 23.8 µM and an EC25 [4, 12] of 44.5 µM. The EC75 [4, 13] was 647 µM, the Slope ([4]; slope through the EC50) was -1.73E-03 and the “Killing at highest dose” value ([5]; GBM8 on OBSCs) was 1.00E+00 fraction of tumor population killed. The AUC ([5]; GBM8 on OBSCs, area under the dose-response curve, trapezoidal rule) was 4.08E+01, the EC10 ([5]; GBM8 on OBSCs, dose required to kill 10% of the tumor) was 8.33 µM and the EC25 ([5]; GBM8 on OBSCs, dose required to kill 25% of the tumor) was 18.1 µM. For the same compound, the EC75 ([5]; GBM8 on OBSCs, dose required to kill 75% of the tumor) was 49.4 µM, the Slope ([5]; GBM8 on OBSCs, slope through the EC50) was -1.60E-02 and the pEC50 ([5]; Homo sapiens) was 4.47. It also gave an EC90 ([5]; Homo sapiens) of 83.3 µM, a pIC50 ([5]; Homo sapiens) of 4.47 and a pEC50 ([6]; Homo sapiens) of 3.09. For the same compound, the EC90 ([6]; Homo sapiens) was over 10 µM, the pIC50 ([6]; Homo sapiens) was 3.09 and the “Killing at highest dose” value ([6]; MS21 on OBSCs) was 5.50E-01 fraction of tumor population killed. The AUC ([6]; MS21 on OBSCs, area under the dose-response curve, trapezoidal rule) was 6.06E+02, the EC10 ([6]; MS21 on OBSCs, dose required to kill 10% of the tumor) was 31.5 µM and the EC25 ([6]; MS21 on OBSCs, dose required to kill 25% of the tumor) was 90.9 µM. For the same compound, the Slope ([6]; MS21 on OBSCs, slope through the EC50) was -2.80E-04, the pEC50 ([7]; Homo sapiens) was 3.35 and the EC90 ([7]; Homo sapiens) was over 10 µM. The pIC50 ([7]; Homo sapiens) was 3.35, the “Killing at highest dose” value ([7]; PDIPG on OBSCs) was 6.40E-01 fraction of tumor population killed and the AUC ([7]; PDIPG on OBSCs, area under the dose-response curve, trapezoidal rule) was 5.03E+02. It also gave an EC10 ([7]; PDIPG on OBSCs, dose required to kill 10% of the tumor) of 3.7 µM, an EC25 ([7]; PDIPG on OBSCs, dose required to kill 25% of the tumor) of 9.26 µM and a Slope ([7]; PDIPG on OBSCs, slope through the EC50) of -2.53E-04. The EC90 [8] was over 10 µM and the “increase of DSS in the recurrent tumor” value [9] was 96 points.
